Consider 12 compounds from patent US7442763B2, “Compositions for treating abnormalities in glomerular filtration, patent ductus arteriosus and osteoporosis” (Hopital Sainte-Justine, priority 1999, dated 2008).

The subject of one data set is saphenous vein of piglet. Kind of data set: PGE2-induced dilation of saphenous vein rings, organ bath assay. Also noted: species or system Yorkshire piglets. The note with it: 1 μM peptides, 1 μM PGE2; rings pre-constricted with U46619; average of 2-8 experiments. The method, then:
Animals. Yorkshire piglets (2-4 days old) were used in this study, according to a protocol approved by the Animal Care Committee of the Research Centre of Ste-Justine Hospital. Briefly, animals were anesthetized with 1.5% halothane and the lower external saphenous veins removed and placed in cold Krebs buffer (pH 7.4) of the following composition (mM): NaCl 120, KCl 4.5, CaCl2 2.5, MgSO4 1.0, NaHCO3 27, KH2PO4 1.0, glucose 10, to which 1.5 U/ml heparin was added.
Organ bath assay. The saphenous veins were cleaned of extraneous tissue and cut into 4 mm rings that were placed in individual jacketed organ baths (15 ml; Radnoti Glass, Monrovia, Calif.) containing Krebs buffer and maintained at 37° C. The solution was bubbled with a mixture of 95% O2-5% CO2. In each experiment, 8 rings were used (4 from each saphenous vein) and were equilibrated for 60 min under 2.0 gr passive tension, with frequent washing and tension adjustment. Tension was measured by force-displacement transducers and was recorded on a computerized data acquisition system using the Work Bench software (both from Kent Scientific, Litchfield, Conn.).
Experimental protocol. In a first set of experiments, the relative distribution of dilatory EP receptor subtypes was ascertained using a combination of EP receptor agonists and antagonists. The vasodilatory response of the lower external saphenous veins to PGE2 appears to result from the stimulation of 30% EP2 and 70% EP4. Tissues were initially challenged with 2×10^−7 U46619 which induced a 1.5 to 2.0 gr increase in tension. […] When the response to U46619 reached a steady state, agents were added. When no response to the agents were observed, a period of 10 minutes was allowed to insure proper distribution of the agents in the tissue. Dose-response curves to PGE2 (10^−10−10^−6 M) were then obtained in the presence of absence of each of the tested drugs.
The results are average of 2-8 experiments. The results are tabulated as percent reversal of 1 μM PGE2-induced […] in the presence of 1 μM peptides. The peptides shown here contain productive and effective substitutions in the parent peptide PHG 213 (SEQ ID NO:1)

For data set [1], the system named is EP4 receptor. As to the kind of experiment: Basal and PGE2-stimulated cAMP levels in EP4/293 cells. Conditions: forskolin 100 μM added for 15 min, 100 μM IBMX. The class given is cell-based, Human. From the text:
(§1) Data are averages of four replicates.
On the technique in general: Cyclic AMP is a second messenger, typically raised through Gs and lowered through Gi signalling.

Data set [2] concerns the target EP4 receptor (Homo sapiens, UniProt P35408, P4S). The data set is described as above. The class given is cell-based.
Excerpt: as §1

Data set [3] concerns EP4 receptor. As to the kind of experiment: Ocular perfusion pressure in porcine eye model (ex vivo vasomotricity of choroid). Also noted: species or system newborn pig. The note with it: PHG213 infused at 100 μM after U46619 1 μM and PGE2 1 μM. The source says:
In order to test the efficacy of PHG213 (SEQ ID NO: 1) on EP4 receptor function, an ex vivo assay of vasomotricity of porcine choroid was used. The dilatory response to PGE2 in this vascular bed was previously shoen to be mediated by EP4 receptor (Abran, D. et al. 1997. Am. J. Physiol. 272: R995-1001).
Method: The method as described in detail by Abran et al. (1997) was followed exactly. A vortex vein from the eye of a newborn pig was catheterized with a 27-gauge needle and perfused with Kreb's solution until perfusion pressure was stable. The vasculature was first constricted with a thromboxane mimetic, U46619 (1 μM), and then PGE2 was infused at 1 μM. Once the reversal of constriction reached a plateau, then PHG213 was infused at 100 μM and the perfusion pressure was recorded.
Positive values of perfusion pressure indicate constriction whereas negative values indicate dilation of the vasculature. PGE2 reversed the constriction produced by U46619. […] Since it is known that the dilatory effects of PGE2 are predominantly mediated by EP4 receptor in choroid of the newborn pig, PHG 213 antagonized the actions of EP4 receptor and blocked the dilation produced by this receptor.

In another data set the test system is normal rats. As to the kind of experiment: Glomerular filtration rate and urinary volume in normal rats. The class given is in vivo, Sprague-Dawley adult rats. Conditions: i.v. infusion 6 μmol/Kg/h. The method, then: (§2) Method: Sprague-Dawley adult rats (˜250 g) were anesthetized with 50 mg/kg pentobarbitone. Left jugular vein (for infusion) and left carotid artery (for measuring blood pressure) were catheterized and another catheter was placed at the tip of the bladder for collecting urine. Infusion of [^3H]-inulin in saline (2 μCi/Kg/h) was started and continued for 2 h to stabilize the system. Urine collection was exactly for 20 min and at 10 min mark, 0.1 ml of blood was withdrawn into heparinized tubes. Blood was centrifuged and radioactivity in plasma was counted. After 10 min and 30 min (30 min and 60 min since the start of the previous urine collection), the process was repeated. The antagonist, PHG 213, was infused in saline i.v. at 6 μmol/Kg/h for one hour before the start of first urine collection. Urinary volume (UV) is calculated and expressed as μl of urine/h corrected for the weight of the animal. GFR was calculated as the ratio of urinary […] corrected for the volume of the urine and the weight of the animal.

The subject of a further data set is diabetic rats. Kind of data set: Glomerular filtration rate and urinary volume in streptozotocin-induced diabetic rats. The class given is in vivo, Sprague-Dawley adult rats. Conditions: systemic infusion. How it is done:
as §2
Method: Sprague-Dawley adult rats (˜250 g) were injected i.p. with streptozotocin (45-50 mg/Kg) and two days later, the urine was tested for glucose and proteinuria. Two weeks later, the rats that tested positive for both markers were chosen to test the effects of PHG 213 (SEQ ID NO:1) on GFR and UV using a method described above.

Data set [4] has as its system ductus arteriosus of fetal sheep. Kind of data set: Ductus arteriosus diameter in fetal sheep by Doppler echocardiography. The class given is in vivo. Conditions: 2 mg bolus followed by 1 mg/Kg infusion over 15 min. The method, then:
Pregnant ewes (129-140 days of gestation) was anesthetized with ketamine (30 mg/Kg i.v.), a caesarian section was performed and the fetus exteriorized. To mimic fetal respiratory conditions, the head of the fetus was submerged in a glove filled with saline. Femoral and jugular veins were catheterized for systemic blood pressure measurements and drug infusions respectively. Ducuts arteriosus (DA) diameter was measured using Doppler echocardiography as described before (Teyssier, G. et al. 1989. J. Cardiovascular Technol. 8: 259-266). Echocardiographic measurements were performed with an Acuson 128 XP/10C real time ultrasound imaging system using 7.5 or 5-MHz transducers duplexed with a range-gated Doppler. Doppler signals were filtered by a 100-Hz high-pass filter. The DA was visualized through a left second intercostal parasternal approach. After the drugs were injected, measurements of DA diameter were repeated 3 times at 5 min intervals for the next 20-25 min.
DA was unchanged for 40 min during the stabilization period. […] PHG213, a peptide antagonist of EP4 receptor, blocked the dilatory action of the receptor which is responsible for maintaining the ductus open in the fetus.

The subject of data set [5] is human fetal spleen cells in coculture with fixed SaOS-2 cells. Kind of data set: Osteoclastogenesis (TRAP+ cells) in coculture of human fetal spleen cells and fixed SaOS-2 cells. The class given is cell-based. The note with it: PHG213 100 μM, three days; n=10. How it is done:
Method: SaOs-2 cells (immortalized cell line of human osteoblasts) were grown for four days in 24-well plates in alpha-MEM medium containing 10% fetal calf serum , vitamin D3 (10^−7). Confluent SaOs-2 cells were fixed in 1% paraformaldehyde M) and dexamethasone (10^−8 M in phosphate-buffered sline (PBS) for 8 min. The cells were rinsed with PBS 4 times and alpha-MEM containing 10% fetal calf serum and vitamin D3 (10^−7 M) was added.
Two days before, spleens from human abortuses were cut into small pieces and triturated several times release the cells. The spleen cells were cultured in alpha-MEM containing 10% fetal calf serum for 2 days. Spleen cells were trypsinized, rinsed once in PBS and counted using a coulter counter. An aliquot of spleen cells (10^5 cells/well) were placed over the monolayer of fixed SaOs-2 cells for 2 h, after which PHG213 (100 μM) was added. Three days later, the cells were fixed in 4% paraformaldehyde in PBS, rinsed with water and tartarat-resistant […] (TRAP) was stained using a commercial kit (Sigma, St. Louis, Mo.). TRAP-positive cells were viewed under a microscope and counted.

Square brackets hold non-standard residues; d marks the D form. Ends that are not written are not given here. Bip = N[C@@H](Cc1ccc(-c2ccccc2)cc1)C(=O)O; Dip = N[C@H](C(=O)O)C(c1ccccc1)c1ccccc1; hPhe = N[C@@H](CCc1ccccc1)C(=O)O

Sequence of EP4 receptor (Homo sapiens, UniProt P35408, P4S) (P35408 whole entry P4S): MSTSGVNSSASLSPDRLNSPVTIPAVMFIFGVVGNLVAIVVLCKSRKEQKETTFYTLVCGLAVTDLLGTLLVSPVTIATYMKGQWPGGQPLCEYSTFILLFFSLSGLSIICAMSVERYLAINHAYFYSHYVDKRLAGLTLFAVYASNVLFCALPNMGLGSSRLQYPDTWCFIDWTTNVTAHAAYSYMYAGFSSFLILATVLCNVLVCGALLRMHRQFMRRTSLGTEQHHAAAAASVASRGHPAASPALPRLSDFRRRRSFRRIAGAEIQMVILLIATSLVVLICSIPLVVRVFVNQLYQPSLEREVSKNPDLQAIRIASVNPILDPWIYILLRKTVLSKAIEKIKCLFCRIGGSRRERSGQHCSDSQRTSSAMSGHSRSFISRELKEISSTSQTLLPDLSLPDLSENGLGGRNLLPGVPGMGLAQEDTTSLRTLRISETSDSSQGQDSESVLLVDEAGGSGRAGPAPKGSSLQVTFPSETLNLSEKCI

As to “1 (IFTSYECL; Peptide inhibitor of prostaglandin E2 receptor subtype EP4) [compound 1]”, the “% blockade of PGE2 induced vasodilation” value in the data set with saphenous vein of piglet amounted to 50.0%.

As to “2 (IFASYECL; Peptide inhibitor of prostaglandin E2 receptor subtype EP4) [compound 2]”, the “% blockade of PGE2 induced vasodilation” value in the data set on saphenous vein of piglet was determined as 35.0%. Take “3 (IFTSAECL; Peptide inhibitor of prostaglandin E2 receptor subtype EP4) [compound 3]”: the “% blockade of PGE2 induced vasodilation” value with saphenous vein of piglet came to 20.0%.

In the case of “4 (IFTSYEAL; Peptide inhibitor of prostaglandin E2 receptor subtype EP4) [compound 4]”, the “% blockade of PGE2 induced vasodilation” value with saphenous vein of piglet turned out to be 60.0%. Turning to “5 (ILASYECL; Peptide inhibitor of prostaglandin E2 receptor subtype EP4) [compound 5]”, in the data set on saphenous vein of piglet, the “% blockade of PGE2 induced vasodilation” value amounted to 60.0%. Same read-out and setting: under “6 (IFTSYDCL; Peptide inhibitor of prostaglandin E2 receptor subtype EP4) [compound 6]” stands 30.0%; under 7 ([Bip]TSYEAL) [compound 7], 65.5%; under 8 ([Dip]TSYEAL) [compound 8], 64.5%. 9 ([hPhe]TSYEAL) [compound 9]: the “% blockade of PGE2 induced vasodilation” value in the data set with saphenous vein of piglet stood at 34.0%. In the case of `C=C[C@@]1(C)CC(=O)[C@]2(O)[C@@]3(C)[C@@H](O)CCC(C)(C)[C@@H]3[C@H](O)[C@H](OC(C)=O)[C@@]2(C)O1` [FSK, forskolin, reference compound], in the data set on EP4 receptor [1], the “CAMP (pmol/ml/10^5 cells)” value is >270 pmol/ml/10^5 cells. For `CCCCC[C@H](O)/C=C/[C@H]1[C@H](O)CC(=O)[C@@H]1C/C=C\CCCC(=O)O` [PGE2, Prostaglandin E2, reference compound], the “CAMP (pmol/ml/10^5 cells)” value on EP4 receptor [2] (PGE2 1 μM added for 15 min, 100 μM IBMX) is >270 pmol/ml/10^5 cells. Regarding “PHG213: peptide antagonist of EP4 receptor, parent peptide, D-amino acids (IFTSYECL; also: D-amino acids, places not given here)”, the “% inhibition of basal cAMP levels” value with EP4 receptor [2] (PHG213 100 μM with 100 μM IBMX for 1 h) is given as 60.7%. Further, in the data set with EP4 receptor [2] (basal, PHG213 100 μM with 100 μM IBMX for 1 h, vehicle 69.9), the “CAMP (pmol/ml/10^5 cells)” value was found to be 27.5 pmol/ml/10^5 cells. Further, in the data set on EP4 receptor [3], the “Block of the dilatory effect of PGE2 on ocular perfusion pressure” value was “blocked this dilatory effect of PGE2 completely”. In the data set on normal rats, the “Glomerular filtration rate (GFR) increase” value came out at 157%, the Mean blood pressure entry is listed as “not significantly altered” and the “Urinary flow rate (UV) increase” value amounted to 2.3 fold. In the data set with diabetic rats, the GFR result is “increased”, the Mean blood pressure entry is reported as “not significantly altered” and the UV entry is reported as “increased”. Moreover, the “Ductus arteriosus (DA) diameter” value in data set [4] was “started to constrict and continued for another 15 min and was irreversible”. The “Reduction of number of TRAP-positive cells (osteoclasts)” value in data set [5] is “half”.
